Measurements from ChEMBL document CHEMBL5579809, “Exploration of bromodomain ligand-linker conjugation sites for efficient CBP/p300 heterobifunctional degrader activity” (Bioorg Med Chem Lett, 2024).
The source made the active and inactive calls. No cut-off for these calls is given here.

Legend:
[1] = target: T1, Protein cereblon/CREB-binding protein (Homo sapiens) (UniProt Q92793+Q96SW2); test: PROTAC activity at CRBN/HiBiT-tagged CBP in human HAP1 cells assessed as total cumulative degradation by measuring AUC at 0.01 nM measured over 24 hrs by luminescence based analysis; type: cell-based
T1 sequence (Q92793 2-2442 limits assumed): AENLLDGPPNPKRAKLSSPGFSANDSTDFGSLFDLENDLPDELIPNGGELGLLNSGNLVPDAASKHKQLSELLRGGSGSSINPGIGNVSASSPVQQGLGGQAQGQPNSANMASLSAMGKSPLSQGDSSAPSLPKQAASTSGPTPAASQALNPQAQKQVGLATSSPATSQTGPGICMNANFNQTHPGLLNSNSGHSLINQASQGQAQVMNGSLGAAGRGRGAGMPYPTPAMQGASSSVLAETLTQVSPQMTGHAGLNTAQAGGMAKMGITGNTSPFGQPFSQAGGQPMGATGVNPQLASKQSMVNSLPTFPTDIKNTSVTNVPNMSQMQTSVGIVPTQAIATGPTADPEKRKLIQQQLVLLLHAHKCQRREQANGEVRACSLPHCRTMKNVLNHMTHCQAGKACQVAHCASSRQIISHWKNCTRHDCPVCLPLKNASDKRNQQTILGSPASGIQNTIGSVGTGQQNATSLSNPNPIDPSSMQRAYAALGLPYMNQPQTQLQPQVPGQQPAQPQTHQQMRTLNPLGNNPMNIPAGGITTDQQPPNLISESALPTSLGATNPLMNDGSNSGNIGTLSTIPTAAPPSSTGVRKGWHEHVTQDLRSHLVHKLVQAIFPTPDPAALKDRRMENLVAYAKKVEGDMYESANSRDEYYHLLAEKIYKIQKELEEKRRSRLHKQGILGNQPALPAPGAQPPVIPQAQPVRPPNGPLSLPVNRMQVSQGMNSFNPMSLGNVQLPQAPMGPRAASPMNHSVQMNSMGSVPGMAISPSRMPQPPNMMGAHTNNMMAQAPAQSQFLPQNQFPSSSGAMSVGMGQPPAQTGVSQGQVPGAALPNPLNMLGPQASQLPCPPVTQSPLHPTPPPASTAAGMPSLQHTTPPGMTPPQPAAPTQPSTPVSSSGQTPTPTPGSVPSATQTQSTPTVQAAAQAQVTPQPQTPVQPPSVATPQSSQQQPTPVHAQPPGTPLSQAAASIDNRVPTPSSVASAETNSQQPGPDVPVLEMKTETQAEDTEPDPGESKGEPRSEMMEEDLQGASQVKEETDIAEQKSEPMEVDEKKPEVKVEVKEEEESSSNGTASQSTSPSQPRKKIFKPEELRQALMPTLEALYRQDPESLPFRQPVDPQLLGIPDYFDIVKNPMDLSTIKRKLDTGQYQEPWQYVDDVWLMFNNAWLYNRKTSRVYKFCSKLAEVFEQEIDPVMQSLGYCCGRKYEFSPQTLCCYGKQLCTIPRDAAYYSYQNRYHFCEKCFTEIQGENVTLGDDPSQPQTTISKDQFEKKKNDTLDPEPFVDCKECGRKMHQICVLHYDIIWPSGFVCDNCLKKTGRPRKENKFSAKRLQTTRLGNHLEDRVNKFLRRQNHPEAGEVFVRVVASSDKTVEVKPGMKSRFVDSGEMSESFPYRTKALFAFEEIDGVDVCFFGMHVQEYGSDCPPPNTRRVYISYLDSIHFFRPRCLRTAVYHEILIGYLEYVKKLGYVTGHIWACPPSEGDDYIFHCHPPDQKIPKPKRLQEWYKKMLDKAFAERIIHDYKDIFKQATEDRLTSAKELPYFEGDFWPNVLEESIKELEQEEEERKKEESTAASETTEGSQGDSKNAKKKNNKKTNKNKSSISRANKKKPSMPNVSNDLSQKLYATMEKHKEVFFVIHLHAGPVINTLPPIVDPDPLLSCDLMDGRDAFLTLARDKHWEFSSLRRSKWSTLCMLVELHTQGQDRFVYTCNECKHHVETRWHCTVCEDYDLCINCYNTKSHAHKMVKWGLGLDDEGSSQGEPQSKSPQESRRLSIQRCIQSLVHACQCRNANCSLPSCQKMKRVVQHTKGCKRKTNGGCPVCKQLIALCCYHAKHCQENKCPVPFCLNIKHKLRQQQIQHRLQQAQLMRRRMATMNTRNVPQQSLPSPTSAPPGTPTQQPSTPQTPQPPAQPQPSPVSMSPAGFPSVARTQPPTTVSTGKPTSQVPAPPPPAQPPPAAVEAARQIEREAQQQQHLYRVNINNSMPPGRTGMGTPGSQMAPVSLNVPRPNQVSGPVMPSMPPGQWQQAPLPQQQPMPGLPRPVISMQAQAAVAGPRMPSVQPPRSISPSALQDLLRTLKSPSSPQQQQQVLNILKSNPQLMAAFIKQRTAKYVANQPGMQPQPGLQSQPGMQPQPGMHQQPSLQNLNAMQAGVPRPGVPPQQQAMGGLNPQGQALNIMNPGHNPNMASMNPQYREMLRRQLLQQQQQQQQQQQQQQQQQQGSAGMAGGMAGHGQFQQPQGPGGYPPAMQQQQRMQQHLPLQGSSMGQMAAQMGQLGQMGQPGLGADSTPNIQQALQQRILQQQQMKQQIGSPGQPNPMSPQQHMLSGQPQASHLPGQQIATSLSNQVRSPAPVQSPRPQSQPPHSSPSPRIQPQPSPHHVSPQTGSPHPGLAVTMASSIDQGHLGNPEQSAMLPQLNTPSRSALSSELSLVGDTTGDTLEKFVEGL
T1 sequence (Q96SW2 whole entry partner): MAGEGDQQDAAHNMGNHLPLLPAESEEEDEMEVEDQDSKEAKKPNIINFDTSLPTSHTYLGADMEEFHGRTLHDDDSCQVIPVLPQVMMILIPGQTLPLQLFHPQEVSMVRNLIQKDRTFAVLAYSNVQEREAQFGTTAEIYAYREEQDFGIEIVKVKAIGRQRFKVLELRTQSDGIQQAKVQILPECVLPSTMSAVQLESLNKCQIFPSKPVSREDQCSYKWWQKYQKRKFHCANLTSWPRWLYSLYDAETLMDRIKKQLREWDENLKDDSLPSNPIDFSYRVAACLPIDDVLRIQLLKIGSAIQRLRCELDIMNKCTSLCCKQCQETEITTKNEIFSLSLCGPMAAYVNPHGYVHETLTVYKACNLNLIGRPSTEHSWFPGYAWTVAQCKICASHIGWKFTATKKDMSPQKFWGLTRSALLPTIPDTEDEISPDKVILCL

[2] = target: T1, Protein cereblon/CREB-binding protein (Homo sapiens); test: PROTAC activity at CRBN/HiBiT-tagged CBP in human HAP1 cells assessed as total cumulative degradation by measuring AUC at 0.1 nM measured over 24 hrs by luminescence based analysis; type: cell-based
[3] = target: T1, Protein cereblon/CREB-binding protein (Homo sapiens); test: PROTAC activity at CRBN/HiBiT-tagged CBP in human HAP1 cells assessed as total cumulative degradation by measuring AUC at 1 nM measured over 24 hrs by luminescence based analysis; type: cell-based
[4] = target: T1, Protein cereblon/CREB-binding protein (Homo sapiens); test: PROTAC activity at CRBN/HiBiT-tagged CBP in human HAP1 cells assessed as total cumulative degradation by measuring AUC at 10 nM measured over 24 hrs by luminescence based analysis; type: cell-based
[5] = target: T1, Protein cereblon/CREB-binding protein (Homo sapiens); test: PROTAC activity at CRBN/HiBiT-tagged CBP in human HAP1 cells assessed as total cumulative degradation by measuring AUC at 100 nM measured over 24 hrs by luminescence based analysis; type: cell-based
[6] = target: T1, Protein cereblon/CREB-binding protein (Homo sapiens); test: PROTAC activity at CRBN/HiBiT-tagged CBP in human HAP1 cells assessed as total cumulative degradation by measuring AUC at 1000 nM measured over 24 hrs by luminescence based analysis; type: cell-based
[7] = target: T2, Protein cereblon/Histone acetyltransferase p300 (Homo sapiens) (UniProt Q09472+Q96SW2); test: PROTAC activity at CRBN/HiBiT-tagged p300 in human HAP1 cells assessed as induction of p300 degradation by measuring degradation rate at 1000 nM measured over 24 hrs by luminescence based analysis; type: cell-based
[8] = target: T2, Protein cereblon/Histone acetyltransferase p300 (Homo sapiens); test: PROTAC activity at CRBN/HiBiT-tagged p300 in human HAP1 cells assessed as induction of p300 degradation by measuring maximal efficacy at 1000 nM measured over 24 hrs by luminescence based analysis relative to control; type: cell-based
[9] = target: T2, Protein cereblon/Histone acetyltransferase p300 (Homo sapiens); test: PROTAC activity at CRBN/HiBiT-tagged p300 in human HAP1 cells assessed as total cumulative degradation by measuring AUC at 0.01 nM measured over 24 hrs by luminescence based analysis; type: cell-based
[10] = target: T2, Protein cereblon/Histone acetyltransferase p300 (Homo sapiens); test: PROTAC activity at CRBN/HiBiT-tagged p300 in human HAP1 cells assessed as total cumulative degradation by measuring AUC at 0.1 nM measured over 24 hrs by luminescence based analysis; type: cell-based
[11] = target: T2, Protein cereblon/Histone acetyltransferase p300 (Homo sapiens); test: PROTAC activity at CRBN/HiBiT-tagged p300 in human HAP1 cells assessed as total cumulative degradation by measuring AUC at 1 nM measured over 24 hrs by luminescence based analysis; type: cell-based
[12] = target: T2, Protein cereblon/Histone acetyltransferase p300 (Homo sapiens); test: PROTAC activity at CRBN/HiBiT-tagged p300 in human HAP1 cells assessed as total cumulative degradation by measuring AUC at 10 nM measured over 24 hrs by luminescence based analysis; type: cell-based
[13] = target: T2, Protein cereblon/Histone acetyltransferase p300 (Homo sapiens); test: PROTAC activity at CRBN/HiBiT-tagged p300 in human HAP1 cells assessed as total cumulative degradation by measuring AUC at 100 nM measured over 24 hrs by luminescence based analysis; type: cell-based
[14] = target: T2, Protein cereblon/Histone acetyltransferase p300 (Homo sapiens); test: PROTAC activity at CRBN/HiBiT-tagged p300 in human HAP1 cells assessed as total cumulative degradation by measuring AUC at 1000 nM measured over 24 hrs by luminescence based analysis; type: cell-based
[15] = target: Protein cereblon/Bromodomain-containing protein 4 (Homo sapiens) (UniProt O60885+Q96SW2); test: PROTAC activity at CRBN/HiBiT-tagged BRD4 in human HAP1 cells assessed as induction of BRD4 degradation measured over 24 hrs by luminescence based analysis; type: cell-based
Chain of Protein cereblon/Bromodomain-containing protein 4 (Homo sapiens) (Q96SW2 whole entry, looked up, other chains not shown): as the sequence (Q96SW2 whole entry partner) above

[16] = target: T2, Protein cereblon/Histone acetyltransferase p300 (Homo sapiens); test: Binding affinity to recombinant CRBN/p300 bromodomain (unknown origin) assessed as ternary complex formation at 10 to 100 nM by Alphascreen-based proximity assay; type: protein assay; settings: dose 10-100 nM
[17] = target: T1, Protein cereblon/CREB-binding protein (Homo sapiens); test: Binding affinity to recombinant CRBN/CBP bromodomain (unknown origin) assessed as ternary complex formation at 10 to 100 nM by Alphascreen-based proximity assay; type: protein assay; settings: dose 10-100 nM
[18] = target: T1, Protein cereblon/CREB-binding protein (Homo sapiens); test: PROTAC activity at CRBN/HiBiT-tagged CBP in human HAP1 cells assessed as induction of CBP degradation by measuring maximal efficacy at 1000 nM measured over 24 hrs by luminescence based analysis relative to control; type: cell-based
[19] = target: T1, Protein cereblon/CREB-binding protein (Homo sapiens); test: PROTAC activity at CRBN/HiBiT-tagged CBP in human HAP1 cells assessed as induction of CBP degradation by measuring degradation rate at 1000 nM measured over 24 hrs by luminescence based analysis; type: cell-based
[20] = target: T1, Protein cereblon/CREB-binding protein (Homo sapiens); test: PROTAC activity at CRBN/HiBiT-tagged CBP in human HAP1 cells assessed as induction of CBP degradation by measuring maximal efficacy at 0.1 nM measured over 24 hrs by luminescence based analysis relative to control; type: cell-based
[21] = target: T1, Protein cereblon/CREB-binding protein (Homo sapiens); test: PROTAC activity at CRBN/HiBiT-tagged CBP in human HAP1 cells assessed as induction of CBP degradation by measuring maximal efficacy at 1 nM measured over 24 hrs by luminescence based analysis relative to control; type: cell-based
[22] = target: T1, Protein cereblon/CREB-binding protein (Homo sapiens); test: PROTAC activity at CRBN/HiBiT-tagged CBP in human HAP1 cells assessed as induction of CBP degradation by measuring maximal efficacy at 10 nM measured over 24 hrs by luminescence based analysis relative to control; type: cell-based
[23] = target: T1, Protein cereblon/CREB-binding protein (Homo sapiens); test: PROTAC activity at CRBN/HiBiT-tagged CBP in human HAP1 cells assessed as induction of CBP degradation by measuring maximal efficacy at 100 nM measured over 24 hrs by luminescence based analysis relative to control; type: cell-based
[24] = target: T1, Protein cereblon/CREB-binding protein (Homo sapiens); test: PROTAC activity at CRBN/HiBiT-tagged CBP in human HAP1 cells assessed as induction of CBP degradation by measuring degradation rate at 1 nM measured over 24 hrs by luminescence based analysis; type: cell-based
[25] = target: T1, Protein cereblon/CREB-binding protein (Homo sapiens); test: PROTAC activity at CRBN/HiBiT-tagged CBP in human HAP1 cells assessed as induction of CBP degradation by measuring degradation rate at 10 nM measured over 24 hrs by luminescence based analysis; type: cell-based
[26] = target: T1, Protein cereblon/CREB-binding protein (Homo sapiens); test: PROTAC activity at CRBN/HiBiT-tagged CBP in human HAP1 cells assessed as induction of CBP degradation by measuring degradation rate at 100 nM measured over 24 hrs by luminescence based analysis; type: cell-based
[27] = target: T2, Protein cereblon/Histone acetyltransferase p300 (Homo sapiens); test: PROTAC activity at CRBN/HiBiT-tagged p300 in human HAP1 cells assessed as induction of p300 degradation by measuring degradation rate at 1 nM measured over 24 hrs by luminescence based analysis; type: cell-based
[28] = target: T2, Protein cereblon/Histone acetyltransferase p300 (Homo sapiens); test: PROTAC activity at CRBN/HiBiT-tagged p300 in human HAP1 cells assessed as induction of p300 degradation by measuring degradation rate at 10 nM measured over 24 hrs by luminescence based analysis; type: cell-based
[29] = target: T2, Protein cereblon/Histone acetyltransferase p300 (Homo sapiens); test: PROTAC activity at CRBN/HiBiT-tagged p300 in human HAP1 cells assessed as induction of p300 degradation by measuring degradation rate at 100 nM measured over 24 hrs by luminescence based analysis; type: cell-based
[30] = target: T2, Protein cereblon/Histone acetyltransferase p300 (Homo sapiens); test: PROTAC activity at CRBN/HiBiT-tagged p300 in human HAP1 cells assessed as induction of p300 degradation by measuring maximal efficacy at 1 nM measured over 24 hrs by luminescence based analysis relative to control; type: cell-based
[31] = target: T2, Protein cereblon/Histone acetyltransferase p300 (Homo sapiens); test: PROTAC activity at CRBN/HiBiT-tagged p300 in human HAP1 cells assessed as induction of p300 degradation by measuring maximal efficacy at 10 nM measured over 24 hrs by luminescence based analysis relative to control; type: cell-based
[32] = target: T2, Protein cereblon/Histone acetyltransferase p300 (Homo sapiens); test: PROTAC activity at CRBN/HiBiT-tagged p300 in human HAP1 cells assessed as induction of p300 degradation by measuring maximal efficacy at 100 nM measured over 24 hrs by luminescence based analysis relative to control; type: cell-based

SMILES	AUC [1]	AUC [2]	AUC [3]	AUC [4]	AUC [5]	AUC [6]	Activity [7] [h⁻¹]	Emax [8] [%]	AUC [9]	AUC [10]	AUC [11]	AUC [12]	AUC [13]	AUC [14]	Activity [15]	Activity [16]	Activity [17]	Emax [18] [%]	Activity [19] [h⁻¹]	Activity [28] [h⁻¹]	also measured
CNC(=O)N1CCc2c(c(N3CCN(C(=O)NCCOCCNc4ccc5c(c4)C(=O)N(C4CCC(=O)NC4=O)C5=O)c4cc(-c5cnn(C)c5)c(C(F)(F)F)cc43)nn2C2CCOCC2)C1 (stereo not given)	23.4	25	23.9	24.9	23.6	21.4	0.02	20	27.5	27.5	26.9	27	26.2	22.3	inactive	–	–	26	0.036	–	–
CNC(=O)N1CCc2c(c(N3CCCc4cc(-c5cnn(CC(=O)NCCOCCNc6ccc7c(c6)C(=O)N(C6CCC(=O)NC6=O)C7=O)c5)c(C(F)F)cc43)nn2C2CCOCC2)C1 (stereo not given)	24.2	25.5	22.6	16	12.1	15.1	0.14	65	25.7	27.3	22.6	13.7	10.4	13.5	inactive	Active	Active	59	0.12	0.22	Emax [21]: 20%; Emax [22]: 44%; Emax [23]: 63%; Activity [24]: 1.5 10^-4/hr; Activity [25]: 0.21 h⁻¹; Activity [26]: 0.22 h⁻¹; Activity [27]: 0.004 h⁻¹; Activity [29]: 0.26 h⁻¹; Emax [30]: 18%; Emax [31]: 55%; Emax [32]: 69%
CNC(=O)N1CCc2c(c(N3CCN(C(=O)NCCOCCOCCOCCOCCOCCOCCNc4ccc5c(c4)C(=O)N(C4CCC(=O)NC4=O)C5=O)c4cc(-c5cnn(C)c5)c(C(F)(F)F)cc43)nn2C2CCOCC2)C1 (stereo not given)	24.9	24.4	24.5	24.2	24.1	23	0.05	33	27.7	27.5	27.4	26.4	24.2	20.5	inactive	Active	Active	–	–	–	–
CNC(=O)N1CCc2c(c(N3CCCc4cc(-c5cnn(CC(=O)NCCOCCOCCOCCOCCNc6ccc7c(c6)C(=O)N(C6CCC(=O)NC6=O)C7=O)c5)c(C(F)F)cc43)nn2C2CCOCC2)C1 (stereo not given)	22.4	23.4	23.3	22.2	18	17.8	0.11	55	28	26.8	25.8	21.3	16.8	15.8	inactive	Active	Active	42	0.12	0.03	Emax [22]: 22%; Emax [23]: 42%; Activity [25]: 9.7 10^-3/hr; Activity [26]: 0.11 h⁻¹; Activity [29]: 0.11 h⁻¹; Emax [31]: 61%; Emax [32]: 51%
CNC(=O)N1CCc2c(c(N3CCCc4cc(-c5cnn(CC(=O)NCCOCCOCCOCCOCCOCCOCCNc6ccc7c(c6)C(=O)N(C6CCC(=O)NC6=O)C7=O)c5)c(C(F)F)cc43)nn2C2CCOCC2)C1 (stereo not given)	21.6	22.8	23.6	23	23.2	25	–	–	27.6	27	26.1	22.7	22.4	26.1	inactive	Active	Active	–	–	0.006	Activity [29]: 0.02 h⁻¹; Emax [31]: 19%; Emax [32]: 21%

Further lines, with some results ahead:

AUC [1]	AUC [2]	AUC [3]	AUC [4]	AUC [5]	AUC [6]	Activity [7] [h⁻¹]	Emax [8] [%]	AUC [9]	AUC [10]	AUC [11]	AUC [12]	AUC [13]	AUC [14]	Activity [15]	Activity [16]	Activity [17]	Emax [18] [%]	Activity [19] [h⁻¹]	Activity [28] [h⁻¹]	SMILES	also measured
24.1	24.4	24.7	25.1	24.6	24.2	0.009	26	27.2	27.3	27.7	26.9	25.5	22.1	inactive	Active	Active	–	–	–	CNC(=O)N1CCc2c(c(N3CCN(C(=O)NCCOCCOCCOCCOCCNc4ccc5c(c4)C(=O)N(C4CCC(=O)NC4=O)C5=O)c4cc(-c5cnn(C)c5)c(C(F)(F)F)cc43)nn2C2CCOCC2)C1 (stereo not given)	–
26.3	24.2	17.8	8.1	4.7	6.6	0.46	83	27.3	26.4	18.6	9.3	5.2	6	inactive	Active	Active	81	0.42	0.49	CNC(=O)N1CCc2c(c(N3CCCc4cc(-c5cnn(C)c5)c(C(F)F)cc43)nn2C2CCN(C(=O)CCOCCOCCOCCOCCOCCOCCNc3ccc4c(c3)C(=O)N(C3CCC(=O)NC3=O)C4=O)CC2)C1 (stereo not given)	Emax [20]: 8.6%; Emax [21]: 33%; Emax [22]: 72%; Emax [23]: 86%; Activity [24]: 0.27 h⁻¹; Activity [25]: 0.68 h⁻¹; Activity [26]: 0.79 h⁻¹; Activity [27]: 0.19 h⁻¹; Activity [29]: 0.74 h⁻¹; Emax [30]: 32%; Emax [31]: 68%; Emax [32]: 83%
